Measured values from US20250122189A1, “FGFR4 INHIBITOR ACID SALT, PREPARATION METHOD THEREFOR AND USE THEREOF” (Abbisko Therapeutics Co., Ltd., priority 2021, published 2025).
Where a name gives a salt, the structure may show the parent alone.

Assays:
[1] = Stability test under high temperature and accelerated conditions (chemical purity); assay type: physicochemical
Excerpt: The p-toluenesulfonate salt of the compound of formula (I) (Form A) and the compound of formula (I) in free form were subjected to conditions of high temperature and accelerated experiments for stability test, and the chemical purity was used as an evaluation index to evaluate the stability of the p-toluenesulfonate salt of the compound of formula (I) (Form A) and the compound of formula (I) in free form.

[2] = Solubility in water; assay type: physicochemical; settings: stirred 24 hrs at room temperature
Description: 2 mg of the p-toluenesulfonate salt of the compound of formula (I) (Form A) and 2 mg of the compound of formula (I) in free form were separately placed in a 2 mL glass bottle, 0.4 mL of water was added into the glass bottles separately, the two mixtures were each stirred for 24 hrs on a magnetic stirrer at room temperature and then centrifuged, and the content measurement was carried out by using a liquid phase.

[3] = In vivo pharmacokinetic experiment in monkeys; settings: Monkey, 200 mpk (based on the compound in free form); 200 mg/kg
Excerpt: The p-toluenesulfonate salt of the compound of formula (I) (Form A) and the compound of formula (I) in free form were each subjected to PK experiments in monkeys, and the administration dose was 200 mpk (based on the compound in free form).

[4] = Hygroscopic behavior test (dynamic vapor sorption); assay type: physicochemical; settings: DVS, 25° C., relative humidity 0% to 90%
Excerpt: The experimental method of characterizing the crystalline acidic salts of the compound of formula (I) using dynamic vapor sorption (DVS) is as follows: a small amount of crystalline acidic salt powder of the compound of formula (I) was placed in a precision sample pan that came with the instrument; after the sample was loaded, the aluminum pan was sent into the instrument for analysis. In the present patent, the instruments used for dynamic vapor sorption were all the DVS Intrinsic model, and the experimental parameters were set as follows: nitrogen was set as carrier gas, the constant temperature was set to 25° C., the rate of mass percentage change over a unit of time (dm/dt)=0.01%/min was used as a criterion for determining if an equilibrium is reached, and the program humidity change cycle was set as follows: the initial relative humidity was 0%, the relative humidity was 90% at the end of the cycle, 2 cycles were set, and each 10% R.H. change was a step.
The hygroscopic weight gains of the p-toluenesulfonate salt of the compound of formula (I) (Form A) in various relative humidity conditions (hygroscopic weight gain/pre-hygroscopic weight*100%) were measured according to the dynamic vapor sorption method to assess the hygroscopicity of the p-toluenesulfonate salt of the compound of formula (I) (Form A).

[5] = Solubility in physiological vehicle (25% PEG300/5% Solutol HS15/70% water); assay type: physicochemical; settings: vehicle 25% PEG300/5% Solutol HS15/70% water (v/v/v), room temperature, various time points (FIG. 7)
Description: 80 mg of the p-toluenesulfonate salt of the compound of formula (I) (Form A) and 80 mg of the compound of formula (I) in free form were separately placed in a 4 mL glass bottle, 2 mL of vehicle (25% PEG300/5% Solutol HS15/70% water) (v/v/v) was added into the glass bottles separately, the two mixtures were each stirred on a magnetic stirrer at room temperature, samples were taken at various time points and centrifuged, and the content measurement was carried out by using a liquid phase.

Compound	Chemical stability (% initial) ([1]; 40° C./75% RH, 3 d)	Chemical stability (% initial) ([1]; 40° C./75% RH, 7 d)	Chemical stability (% initial) ([1]; 40° C./75% RH, 14 d)	Chemical stability (% initial) ([1]; 60° C., 3 d)	Chemical stability (% initial) ([1]; 60° C., 7 d)	Chemical stability (% initial) ([1]; 60° C., 14 d)	Solubility [2] [µg/mL]	AUC [3] [ng·h/mL]	weight change along with the increase of relative humidity (hygroscopic weight gain) [4]	solubility compared with the compound of formula (I) in free form [5]
C=CC(=O)N[C@H]1CCOC[C@H]1Nc1ncc2cc(-c3c(F)c(OC)cc(OC)c3F)nc(N3CC(C)(OC)C3)c2n1 [Compound of formula (I) in free form, N-((3S,4S)-3-((6-(2,6-difluoro-3,5-dimethoxyphenyl)-8-(3-methoxy-3-methylazetidin-1-yl)pyrido[3,4-d]pyrimidin-2-yl)amino)tetrahydro-2H-pyran-4-yl)acrylamide]	99.9	100.0	100.0	100.1	100.1	100.1	25.6	9952	–	–
C=CC(=O)N[C@H]1CCOC[C@H]1Nc1ncc2cc(-c3c(F)c(OC)cc(OC)c3F)nc(N3CC(C)(OC)C3)c2n1 [p-toluenesulfonate salt of the compound of formula (I) (Form]	100.2	100.1	100.0	100.3	99.8	99.8	1370	124860	no more than 2%	significantly higher
